# Patent US12398097B2, “WDR5-MYC inhibitors” (Vanderbilt University, priority 2019, dated 2025)
# Target: WDR5 (Homo sapiens, UniProt P61964)
# Experiment: Competition-based fluorescence polarization anisotropy assay
# Conditions: binding to WDR5; displacement of FITC-labeled small molecule probe (analogous to Example J2 or HCH-25) or peptide probe FITC-AHx-SEEEIDVVSV; pH 6.0; Ki converted from IC50
# Procedure: Compounds of the present invention were assessed for their ability to bind to WDr5 using a competition-based fluorescence polarization anisotropy assay, similar to the method previously described. […] Fluorescence polarization measurements were performed in 384-well plates (Greiner Bio One) using a Cytation 3 plate reader (BioTek). Fluorescein isothiocyanate (FITC)-labeled peptide probe ([…]) was purchased from GenScript USA Inc and used without further purification. […] The assay buffer contained 200 mM phosphate, 300 mM NaCl, and 0.5 mM TCEP and 0.1% Chaps at pH 6.0. […] This was converted into a binding dissociation constant (Ki value) according to the formula: […] Data shown in the table below represents a K; determined from this method for each Example, using either a fluorescently labeled small molecule probe analogous to Example J2 or Example HCH-25, or the peptide probe described above, in the assay.
row,Compound,Ki
1,"COC1CCN(C(=O)c2cc(Cl)cc(NS(=O)(=O)c3cc(Br)ccc3O)c2O)C1 (centres unmarked) [Example J24, 5-Bromo-N-(5-chloro-2-hydroxy-3-(3-methoxypyrrolidine-1-carbonyl)phenyl)-2-hydroxybenzenesulfonamide]",5440 nM
2,"COC[C@H]1CCCN1C(=O)c1cc(Cl)cc(NS(=O)(=O)c2cc(Br)ccc2O)c1O [Example J28, (R)-5-Bromo-N-(5-chloro-2-hydroxy-3-(2-(methoxymethyl)pyrrolidine-1-carbonyl)phenyl)-2-hydroxybenzenesulfonamide]",8290 nM
3,"COC[C@@H]1CCCN1C(=O)c1cc(Cl)cc(NS(=O)(=O)c2cc(Br)ccc2O)c1O [Example J29, (S)-5-Bromo-N-(5-chloro-2-hydroxy-3-(2-(methoxymethyl)pyrrolidine-1-carbonyl)phenyl)-2-hydroxybenzenesulfonamide]",4000 nM
4,"O=C(c1cc(Cl)cc(NS(=O)(=O)c2cc(Br)ccc2O)c1O)N1CCOCC1 [Example J30, 5-Bromo-N-(5-chloro-2-hydroxy-3-(morpholine-4-carbonyl)phenyl)-2-hydroxybenzenesulfonamide]",2360 nM
5,"CN(CC1CCCO1)C(=O)c1cc(Cl)cc(NS(=O)(=O)c2cc(Br)ccc2O)c1O (centres unmarked) [Example J37, 3-((5-Bromo-2-hydroxyphenyl)sulfonamido)-5-chloro-2-hydroxy-N-methyl-N-((tetrahydrofuran-2-yl)methyl)benzamide]",3780 nM
6,"CNC(=O)c1cc(Cl)cc(NS(=O)(=O)c2cc(Br)cc(Cl)c2O)c1O [Example J40, 3-((5-Bromo-3-chloro-2-hydroxyphenyl)sulfonamido)-5-chloro-2-hydroxy-N-methylbenzamide]",240 nM
7,"O=C(NCCO)c1cc(Cl)cc(NS(=O)(=O)c2cc(Br)cc(Cl)c2O)c1O [Example J41, 3-((5-Bromo-3-chloro-2-hydroxyphenyl)sulfonamido)-5-chloro-2-hydroxy-N-(2-hydroxyethyl)benzamide]",2480 nM
8,"COCCNC(=O)c1cc(Cl)cc(NS(=O)(=O)c2cc(Br)cc(Cl)c2O)c1O [Example J42, 3-((5-Bromo-3-chloro-2-hydroxyphenyl)sulfonamido)-5-chloro-2-hydroxy-N-(2-methoxyethyl)benzamide]",300 nM
9,"COc1ccc(Br)cc1S(=O)(=O)Nc1cc(Cl)cc(C(N)=O)c1O [Example J43, 3-((5-Bromo-2-methoxyphenyl)sulfonamido)-5-chloro-2-hydroxybenzamide]",1150 nM
10,"CNC(=O)c1cc(Cl)cc(NS(=O)(=O)c2cc(Br)ccc2OC)c1O [Example J44, 3-((5-Bromo-2-methoxyphenyl)sulfonamido)-5-chloro-2-hydroxy-N-methylbenzamide]",1260 nM
11,"COCCNC(=O)c1cc(Cl)cc(NS(=O)(=O)c2cc(Br)ccc2OC)c1O [Example J45, 3-((5-Bromo-2-methoxyphenyl)sulfonamido)-5-chloro-2-hydroxy-N-(2-methoxyethyl)benzamide]",990 nM
12,"COc1ccc(Br)cc1S(=O)(=O)Nc1cc(Cl)cc(C(=O)N2CCOCC2)c1O [Example J48, 5-Bromo-N-(5-chloro-2-hydroxy-3-(morpholine-4-carbonyl)phenyl)-2-methoxybenzenesulfonamide]",6190 nM
13,"COc1ccc(Br)cc1S(=O)(=O)Nc1cc(Cl)cc(C(=O)N(C)C)c1O [Example J50, 3-((5-Bromo-2-methoxyphenyl)sulfonamido)-5-chloro-2-hydroxy-N,N-dimethylbenzamide]",74200 nM
14,"COCCCNC(=O)c1cc(Cl)cc(NS(=O)(=O)c2cc(Br)ccc2OC)c1O [Example J51, 3-((5-Bromo-2-methoxyphenyl)sulfonamido)-5-chloro-2-hydroxy-N-(3-methoxypropyl)benzamide]",2450 nM
15,"COc1ccc(Br)cc1S(=O)(=O)Nc1cc(Cl)cc(C(=O)NC2CCOCC2)c1O [Example J52, 3-((5-Bromo-2-methoxyphenyl)sulfonamido)-5-chloro-2-hydroxy-N-(tetrahydro-2H-pyran-4-yl)benzamide]",3950 nM
16,"COc1ccc(Br)cc1S(=O)(=O)Nc1cc(Cl)cc(C(=O)NCCCO)c1O [Example J53, 3-((5-Bromo-2-methoxyphenyl)sulfonamido)-5-chloro-2-hydroxy-N-(3-hydroxypropyl)benzamide]",2070 nM
17,"COc1ccc(Br)cc1S(=O)(=O)Nc1cc(Cl)cc(C(=O)N2CCC[C@H]2CO)c1O [Example J54, (S)-5-Bromo-N-(5-chloro-2-hydroxy-3-(2-(hydroxymethyl)pyrrolidine-1-carbonyl)phenyl)-2-methoxybenzenesulfonamide]",6840 nM
18,"COc1ccc(Br)cc1S(=O)(=O)Nc1cc(Cl)cc(C(=O)N2CCC[C@@H]2CO)c1O [Example J55, (R)-5-Bromo-N-(5-chloro-2-hydroxy-3-(2-(hydroxymethyl)pyrrolidine-1-carbonyl)phenyl)-2-methoxybenzenesulfonamide]",8170 nM
19,"COC[C@@H]1CCCN1C(=O)c1cc(Cl)cc(NS(=O)(=O)c2cc(Br)ccc2OC)c1O [Example J56, (S)-5-Bromo-N-(5-chloro-2-hydroxy-3-(2-(methoxymethyl)pyrrolidine-1-carbonyl)phenyl)-2-methoxybenzenesulfonamide]",4640 nM

# Other lines, results leading:
row,Ki,Compound
1,540 nM,"O=C(NCCO)c1cc(Cl)cc(NS(=O)(=O)c2cc(Br)ccc2O)c1O [Example J16, 3-((5-Bromo-2-hydroxyphenyl)sulfonamido)-5-chloro-2-hydroxy-N-(2-hydroxyethyl)benzamide]"
2,2690 nM,"O=C(NCCCO)c1cc(Cl)cc(NS(=O)(=O)c2cc(Br)ccc2O)c1O [Example J17, 3-((5-Bromo-2-hydroxyphenyl)sulfonamido)-5-chloro-2-hydroxy-N-(3-hydroxypropyl)benzamide]"
3,1350 nM,"O=C(NC1CCOC1)c1cc(Cl)cc(NS(=O)(=O)c2cc(Br)ccc2O)c1O (centres unmarked) [Example J18, 3-((5-Bromo-2-hydroxyphenyl)sulfonamido)-5-chloro-2-hydroxy-N-(tetrahydrofuran-3-yl)benzamide]"
4,1180 nM,"O=C(NCCN1CCOCC1)c1cc(Cl)cc(NS(=O)(=O)c2cc(Br)ccc2O)c1O [Example J19, 3-((5-Bromo-2-hydroxyphenyl)sulfonamido)-5-chloro-2-hydroxy-N-(2-morpholinoethyl)benzamide]"
5,580 nM,"O=C(NC1COC1)c1cc(Cl)cc(NS(=O)(=O)c2cc(Br)ccc2O)c1O [Example J21, 3-((5-Bromo-2-hydroxyphenyl)sulfonamido)-5-chloro-2-hydroxy-N-(oxetan-3-yl)benzamide]"
6,470 nM,"O=C(N[C@H]1CCOC1)c1cc(Cl)cc(NS(=O)(=O)c2cc(Br)ccc2O)c1O [Example J22, (S)-3-((5-Bromo-2-hydroxyphenyl)sulfonamido)-5-chloro-2-hydroxy-N-(tetrahydrofuran-3-yl)benzamide]"
7,490 nM,"O=C(NCC1CCOC1)c1cc(Cl)cc(NS(=O)(=O)c2cc(Br)ccc2O)c1O (centres unmarked) [Example J23, 3-((5-Bromo-2-hydroxyphenyl)sulfonamido)-5-chloro-2-hydroxy-N-((tetrahydrofuran-3-yl)methyl)benzamide]"
8,230 nM,"O=C(NCC1CCCO1)c1cc(Cl)cc(NS(=O)(=O)c2cc(Br)ccc2O)c1O (centres unmarked) [Example J25, 3-((5-Bromo-2-hydroxyphenyl)sulfonamido)-5-chloro-2-hydroxy-N-((tetrahydrofuran-2-yl)methyl)benzamide]"
9,740 nM,"O=C(NC[C@H]1CCCO1)c1cc(Cl)cc(NS(=O)(=O)c2cc(Br)ccc2O)c1O [Example J26, (R)-3-((5-Bromo-2-hydroxyphenyl)sulfonamido)-5-chloro-2-hydroxy-N-((tetrahydrofuran-2-yl)methyl)benzamide]"
10,780 nM,"O=C(NC[C@@H]1CCCO1)c1cc(Cl)cc(NS(=O)(=O)c2cc(Br)ccc2O)c1O [Example J27, (S)-3-((5-Bromo-2-hydroxyphenyl)sulfonamido)-5-chloro-2-hydroxy-N-((tetrahydrofuran-2-yl)methyl)benzamide]"
11,790 nM,"O=C(NCc1ccccn1)c1cc(Cl)cc(NS(=O)(=O)c2cc(Br)ccc2O)c1O [Example J31, 3-((5-Bromo-2-hydroxyphenyl)sulfonamido)-5-chloro-2-hydroxy-N-(pyridin-2-ylmethyl)benzamide]"
12,320 nM,"O=C(NCc1ccco1)c1cc(Cl)cc(NS(=O)(=O)c2cc(Br)ccc2O)c1O [Example J34, 3-((5-Bromo-2-hydroxyphenyl)sulfonamido)-5-chloro-N-(furan-2-ylmethyl)-2-hydroxybenzamide]"
13,230 nM,"O=C(NCc1ccc(=O)[nH]c1)c1cc(Cl)cc(NS(=O)(=O)c2cc(Br)ccc2O)c1O [Example J35, 3-((5-Bromo-2-hydroxyphenyl)sulfonamido)-5-chloro-2-hydroxy-N-((6-oxo-1,6-dihydropyridin-3-yl)methyl)benzamide]"
14,240 nM,"O=C(NCc1cc[nH]c(=O)c1)c1cc(Cl)cc(NS(=O)(=O)c2cc(Br)ccc2O)c1O [Example J36, 3-((5-Bromo-2-hydroxyphenyl)sulfonamido)-5-chloro-2-hydroxy-N-((2-oxo-1,2-dihydropyridin-4-yl)methyl)benzamide]"
15,400 nM,"O=C(NC1CC(F)(F)C1)c1cc(Cl)cc(NS(=O)(=O)c2cc(Br)ccc2O)c1O [Example J38, 3-((5-Bromo-2-hydroxyphenyl)sulfonamido)-5-chloro-N-(3,3-difluorocyclobutyl)-2-hydroxybenzamide]"
16,790 nM,"O=C(NCC(F)F)c1cc(Cl)cc(NS(=O)(=O)c2cc(Br)ccc2O)c1O [Example J39, 3-((5-Bromo-2-hydroxyphenyl)sulfonamido)-5-chloro-N-(2,2-difluoroethyl)-2-hydroxybenzamide]"
